In paper PMC2951486 (Journal of Alzheimer's disease : JAD, 2010):

Key:
[1] = target: heparin-induced tau filaments (HITF) (Homo sapiens, UniProt P10636); assay: Inhibition assay, displacement of [3H]-AST from HITF; conditions: inhibition of [3H]-AST binding; Ki values only in Fig. 2E
[2] = system: AD-PHF immobilized on CM5 sensor chip; assay: Surface plasmon resonance on immobilized AD-PHFs; format: binding, human; conditions: SPR, AD-PHFs versus aggregated amyloid
AD-PHF = AD-PHF (Homo sapiens, UniProt P10636); assay: Double staining immunofluorescence of AD-PHFs with PHF-1 antibody and LNS; conditions: LNS 0.1 %
AD-PHFs = AD-PHFs (Homo sapiens, UniProt P10636); assay: Inhibition assay, displacement of [3H]-AST from AD-PHFs; conditions: inhibition of [3H]-AST binding; Ki values only in Fig. 2E
[3] = Parallel artificial membrane permeability assay; conditions: PAMPA, pH 7.4
[4] = system: synthetic Aβ peptide (Aβ1–42) aggregates; assay: Scatchard analysis of [3H]-AST binding to Aβ peptide aggregates; conditions: amyloid aggregates

heparin-induced tau filaments (HITF), sequence (P10636 1-441 isoform P10636-8): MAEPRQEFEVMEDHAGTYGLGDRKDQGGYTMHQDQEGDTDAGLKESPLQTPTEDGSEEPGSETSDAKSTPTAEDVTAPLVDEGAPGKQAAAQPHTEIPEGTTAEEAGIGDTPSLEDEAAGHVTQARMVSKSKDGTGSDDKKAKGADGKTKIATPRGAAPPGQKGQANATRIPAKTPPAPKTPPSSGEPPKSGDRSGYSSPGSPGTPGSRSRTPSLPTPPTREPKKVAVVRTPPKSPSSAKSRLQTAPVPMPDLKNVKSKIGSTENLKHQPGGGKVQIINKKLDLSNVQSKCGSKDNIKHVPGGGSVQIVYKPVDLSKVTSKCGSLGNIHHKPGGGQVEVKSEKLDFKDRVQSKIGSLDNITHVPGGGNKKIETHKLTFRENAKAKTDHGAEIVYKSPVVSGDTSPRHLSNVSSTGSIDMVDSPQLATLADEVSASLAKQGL
AD-PHFs, sequence (P10636 623-758 limits assumed): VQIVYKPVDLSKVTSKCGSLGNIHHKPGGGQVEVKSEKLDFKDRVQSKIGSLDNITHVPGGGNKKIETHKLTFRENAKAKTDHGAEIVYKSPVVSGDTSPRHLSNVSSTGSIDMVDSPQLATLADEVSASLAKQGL
AD-PHF, sequence (P10636 623-758 limits assumed): as above

## Cc1c(OCC(F)(F)F)ccnc1C[S+]([O-])c1nc2ccccc2[nH]1 (stereo not shown) [LNS, lansoprazole]
[1]
  affinity for HITF (relative Ki within the series): highest affinity for HITF
[2]
  response curves (RU) on AD-PHFs surface compared to amyloid surface: at least five times higher
AD-PHF
  staining of AD-PHF compared with PHF-1 immunostaining: colocalization of the signals from LNS and PHF-1 mAb

## COc1ccc(CCN2CCC(Nc3nc4ccccc4n3Cc3ccc(F)cc3)CC2)cc1 [AST, astemizole]
AD-PHFs
  affinity for AD-PHFs (relative Ki within the series): highest affinity for AD-PHFs
[2]
  response curves (RU) on AD-PHFs surface compared to amyloid surface: at least five times higher
[3]
  Papp at 16 h: 145 ×10⁻⁶ cm/s
[4]
  ratio Bmax/Kd: 0.06
